Results reported in US5453441A, “Substituted arginines and substituted homoarginines and use thereof” (Cornell Research Foundation, Inc., priority 1994, dated 1995).

Columns and labels:
[1] = tested on: inducible form of nitric oxide synthase; test: Inhibition of nitric oxide synthesis by nitric oxide synthase (inducible form) from cytokine-treated rat aortic smooth muscle cells; type: biochemical, adult male Fischer 344 rats
Method: Reaction mixtures were made up containing 50 μL of a working solution, 10 μL myoglobin solution (3 mg/ml), 10 μL inhibitor, 20 μL nitric oxide synthase and 10 μL water.
The working mixture was made up to contain 160 mM tris buffer, 200 μM L-arginine, 1 mM NADPH, 20 μM flavin adenine dinucleotide, 20 μM tetrahydrobiopterin in distilled water (pH adjusted to 7.6 by adding 10N NaOH).
The nitric oxide synthase was obtained as follows: Aortic smooth muscle cells were cultured by explanting segments of the medial layer of aortae from adult male Fischer 344 rats. Aortae were removed aseptically and freed of adventitial and endothelial cells by scraping both the lumenal and abluminal surfaces. Medial fragments (1-2 mm) were allowed to attach to dry Primaria 25 cm^2 tissue culture flasks (Falcon; Oxnard, Calif.) which were kept moist with growth medium until cells emerged. Cultures were fed twice weekly with medium 199 containing 10% fetal bovine serum, 25 mM HEPES, 2 mM L-glutamine, 40 μg/ml endothelial cell growth supplement (Biomedical Technologies; Stoughton, Mass.) and 10 μg/ml gentamycin (GIBCO; Grand Island, N.Y.). When primary cultures became confluent, they were passaged by trypsinization. Cells in passage 10-15 were seeded at 20,000/well. […]

pressor response = type: in vivo, rat; settings: phenylephrine 0.1 to 10 μg/kg, angiotensin II 0.01 to 1 μg/kg
Method: To establish that nitric oxide overproduction can result in a diminished sensitivity to pressor agents, studies in a rat model of septic hypotension, i.e., the endotoxic-, pithed-rat, are performed.
Animals are either untreated (control) or treated with endotoxin (lipopolysaccharide-treated; 15 mg/kg, i.p.) 6 hours prior to their being pithed and instrumented for blood pressure recording. Prior to pithing, mean systematic arterial pressure in control rats is about 120 mm Hg. Pressure falls about 50% after pithing of control animals and is reduced to about 25% of normal in pithed endotoxin-treated animals.
Responsiveness is restored to more than 50% of the responsiveness seen in pithed control rats.

Compound | effectiveness relative to the commercial compound (N^ω -methyl-DL-arginine), based on the concentration necessary to inhibit 50% [1] | pressor effect in pithed control rats (pressor response) | pressor effect in pithed endotoxic rats (pressor response)
CC(N)(CCCNC(=N)NN)C(=O)O (racemic) [α-methyl-N^ω -amino-DL-arginine, α-Methyl-N^ω -Amino-DL-Arginine] | about twice as effective as the commercial compound |  | 
CNC[C@H](O)c1cccc(O)c1 [phenylephrine] |  | strong pressor effect | negligible effect
angiotensin II: listed among suitable α1 -adrenergic agonists; pressor agent (DRVYIHPF; Angiotensin-2; UniProt P01019 25-32, looked up) |  | strong pressor effect | negligible effect
